# From patent US8952024B2, “Herbicidal pyrimidone derivatives” (E I du Pont de Nemours and Company, priority 2009, dated 2015)
# How the values were obtained:
# Assay type in all cases: in vivo
# [1] = test system: barnyardgrass (Echinochloa crus-galli); assay: Test A pre-/postemergence plant response
# Outline: (§1)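 Pre: directed soil spray on seeded loam/sand blend. Post: same formulation (non-phytotoxic solvent + surfactant) on 2–10 cm plants, 1–2 leaf stage. Greenhouse ~10 d; visual injury score 0–100 vs untreated.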
# [2] = test system: corn (Zea mays); assay: Test A pre-/postemergence plant response
# Outline: as §1
# [3] = test system: giant foxtail (Setaria faberii); assay: Test A pre-/postemergence plant response
# Outline: as §1
# [4] = test system: large crabgrass (Digitaria sanguinalis); assay: Test A pre-/postemergence plant response
# Outline: as §1
# [5] = test system: morningglory (Ipomoea spp.); assay: Test A pre-/postemergence plant response
# Outline: as §1
# [6] = test system: pigweed (Amaranthus retroflexus); assay: Test A pre-/postemergence plant response
# Outline: as §1
# [7] = test system: velvetleaf (Abutilon theophrasti); assay: Test A pre-/postemergence plant response
# Outline: as §1
# [8] = test system: wheat (Triticum aestivum); assay: Test A pre-/postemergence plant response
# Outline: as §1
# [9] = test system: windgrass (Apera spica-venti); assay: Test B postemergence plant response; settings: for Windgrass plant response rating (0 to 100 scale): 62 g ai/ha, 0 is no effect, 13 to 15 days
# Outline: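 Plants grown in peat/vermiculite medium were sprayed postemergence at 2–18 cm height (1- to 4-leaf stage). After 13–15 days in the greenhouse, response was rated visually against untreated controls on a 0–100 scale (0 no effect, 100 complete control).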
# [10] = test system: barnyardgrass (Echinochloa crus-galli); assay: Test B flooded paddy test; settings: for Plant response rating, Flood, Barnyardgrass: 250 g ai/ha, flooded paddy test, visual rating on 0 to 100 scale (0 no effect, 100 complete control) after 13 to 15 days; for Plant response rating, Barnyardgrass: Flood (flooded paddy test), 13 to 15 days; for Barnyardgrass plant response rating: Flood, 31 g ai/ha, scale 0 to 100 (0 no effect, 100 complete control)
# Outline: (§2)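 Flooded-pot test: water raised to 3 cm above soil when treating, compound put in the water, level unchanged thereafter. Plants were at 2 leaves. Readout after 13 to 15 days, visual, relative to controls; 0 signifies no effect and 100 complete control.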
# [11] = test system: ducksalad (Heteranthera limosa); assay: Test B flooded paddy test; settings: for Plant response rating, Flood, Ducksalad: 250 g ai/ha, flooded paddy test, visual rating on 0 to 100 scale (0 no effect, 100 complete control) after 13 to 15 days; for Plant response rating, Ducksalad: Flood (flooded paddy test), 13 to 15 days; for Ducksalad plant response rating: Flood, 31 g ai/ha, scale 0 to 100 (0 no effect, 100 complete control)
# Outline: as §2
# [12] = test system: rice (Oryza sativa); assay: Test B flooded paddy test; settings: for Plant response rating, Flood, Rice: 250 g ai/ha, flooded paddy test, visual rating on 0 to 100 scale (0 no effect, 100 complete control) after 13 to 15 days; for Plant response rating, Rice: Flood (flooded paddy test), 13 to 15 days; for Rice plant response rating: Flood, 31 g ai/ha, scale 0 to 100 (0 no effect, 100 complete control)
# Outline: as §2
# [13] = test system: umbrella sedge (Cyperus difformis); assay: Test B flooded paddy test; settings: for Plant response rating, Flood, Sedge, Umbrella: 250 g ai/ha, flooded paddy test, visual rating on 0 to 100 scale (0 no effect, 100 complete control) after 13 to 15 days; for Plant response rating, Sedge, Umbrella: Flood (flooded paddy test), 13 to 15 days; for Sedge, Umbrella plant response rating: Flood, 31 g ai/ha, scale 0 to 100 (0 no effect, 100 complete control)
# Outline: as §2
# [14] = Postemergence, 125 g ai/ha, visual injury, 0 to 100 scale (0 no effect, 100 complete control), approx. ten days
# [15] = Postemergence, 500 g ai/ha, 0 to 100 scale, 0 = no effect, 100 = complete control, approx. ten days
# [16] = Preemergence, 125 g ai/ha, 0 to 100 scale, 0 = no effect, 100 = complete control
# [17] = Preemergence, 500 g ai/ha, visual injury, 0 to 100 scale (0 no effect, 100 complete control), approx. ten days
# [18] = 31 g ai/ha, postemergence, scale 0 to 100, 0 is no effect, 100 is complete control
# [19] = postemergence, 100 is complete control
# [20] = Postemergence, 125 g ai/ha, visual rating after 13 to 15 days, scale 0 (no effect) to 100 (complete control)
# [21] = Postemergence, 250 g ai/ha, scale 0 to 100 (0 no effect, 100 complete control)
# [22] = 62 g ai/ha, scale of 0 to 100 where 0 is no effect and 100 is complete control
# [23] = 125 g ai/ha, scale 0 to 100, 0 is no effect, 100 is complete control
# [24] = Postemergence, 125 g ai/ha, 0 to 100 scale where 0 is no effect and 100 is complete control
structure (smiles),measurement,setting,value
CCCc1ncc(C(=O)C2=C(O)CCCC2=O)c(=O)n1CCC [Compound 72],Barnyardgrass plant response rating,[1]; [14],80
same,"Plant response rating, Barnyardgrass",[1]; [15],90
same,"Plant response rating, Barnyardgrass",[1]; [16],10
same,"Plant response rating, Barnyardgrass",[1]; [17],60
same,Corn plant response rating,[2]; [14],0
same,"Plant response rating, Corn",[2]; [15],10
same,"Plant response rating, Corn",[2]; [16],0
same,"Plant response rating, Corn",[2]; [17],20
same,"Foxtail, Giant plant response rating",[3]; [14],40
same,"Plant response rating, Foxtail, Giant",[3]; [15],60
same,"Plant response rating, Foxtail, Giant",[3]; [16],0
same,"Plant response rating, Foxtail, Giant",[3]; [17],30
same,"Crabgrass, Large plant response rating",[4]; [14],80
same,"Plant response rating, Crabgrass, Large",[4]; [15],90
same,"Plant response rating, Crabgrass, Large",[4]; [16],70
same,"Plant response rating, Crabgrass, Large",[4]; [17],100
same,Morningglory plant response rating,[5]; [14],90
same,"Plant response rating, Morningglory",[5]; [15],90
same,"Plant response rating, Morningglory",[5]; [17],70
same,Pigweed plant response rating,[6]; [14],80
same,"Plant response rating, Pigweed",[6]; [15],100
same,"Plant response rating, Pigweed",[6]; [16],50
same,"Plant response rating, Pigweed",[6]; [17],90
same,Velvetleaf plant response rating,[7]; [14],100
same,"Plant response rating, Velvetleaf",[7]; [15],100
same,"Plant response rating, Velvetleaf",[7]; [16],90
same,"Plant response rating, Velvetleaf",[7]; [17],100
same,Wheat plant response rating,[8]; [14],0
same,"Plant response rating, Wheat",[8]; [15],0
same,"Plant response rating, Wheat",[8]; [16],0
same,"Plant response rating, Wheat",[8]; [17],0
same,"Plant response rating, Windgrass",[9]; [18],5
same,Windgrass plant response rating (0 to 100 scale),[9]; [19],20
same,"Plant response rating, Windgrass",[9]; [20],60
same,"Plant response rating, Windgrass",[9]; [21],65
same,"Plant response rating, Flood, Barnyardgrass",[10],30
same,"Plant response rating, Barnyardgrass",[10]; [22],0
same,"Plant response rating, Barnyardgrass",[10]; [23],0
same,Barnyardgrass plant response rating,[10],0
same,"Plant response rating, Flood, Ducksalad",[11],0
same,"Plant response rating, Ducksalad",[11]; [22],0
same,"Plant response rating, Ducksalad",[11]; [23],0
same,Ducksalad plant response rating,[11],0
same,"Plant response rating, Flood, Rice",[12],20
same,"Plant response rating, Rice",[12]; [22],0
same,"Plant response rating, Rice",[12]; [23],20
same,Rice plant response rating,[12],0
same,"Plant response rating, Flood, Sedge, Umbrella",[13],30
same,"Plant response rating, Sedge, Umbrella",[13]; [22],0
same,"Plant response rating, Sedge, Umbrella",[13]; [23],0
same,"Sedge, Umbrella plant response rating",[13],0
CCCCn1c(CCC)ncc(C(=O)C2=C(O)CCCC2=O)c1=O [Compound 75],"Plant response rating, Barnyardgrass",[1]; [24],80
same,"Plant response rating, Barnyardgrass",[1]; [15],90
same,"Plant response rating, Barnyardgrass",[1]; [16],40
same,"Plant response rating, Barnyardgrass",[1]; [17],80
same,"Plant response rating, Corn",[2]; [24],0
same,"Plant response rating, Corn",[2]; [15],50
same,"Plant response rating, Corn",[2]; [16],0
same,"Plant response rating, Corn",[2]; [17],0
same,"Plant response rating, Foxtail, Giant",[3]; [24],80
same,"Plant response rating, Foxtail, Giant",[3]; [15],90
same,"Plant response rating, Foxtail, Giant",[3]; [16],50
same,"Plant response rating, Foxtail, Giant",[3]; [17],70
same,"Plant response rating, Crabgrass, Large",[4]; [24],90
same,"Plant response rating, Crabgrass, Large",[4]; [15],90
same,"Plant response rating, Crabgrass, Large",[4]; [16],90
same,"Plant response rating, Crabgrass, Large",[4]; [17],100
same,"Plant response rating, Morningglory",[5]; [24],90
same,"Plant response rating, Morningglory",[5]; [15],100
same,"Plant response rating, Morningglory",[5]; [16],60
same,"Plant response rating, Morningglory",[5]; [17],90
same,"Plant response rating, Pigweed",[6]; [24],100
same,"Plant response rating, Pigweed",[6]; [15],100
same,"Plant response rating, Pigweed",[6]; [16],100
same,"Plant response rating, Pigweed",[6]; [17],100
same,"Plant response rating, Velvetleaf",[7]; [24],100
same,"Plant response rating, Velvetleaf",[7]; [15],100
same,"Plant response rating, Velvetleaf",[7]; [16],90
same,"Plant response rating, Velvetleaf",[7]; [17],100
same,"Plant response rating, Wheat",[8]; [24],0
same,"Plant response rating, Wheat",[8]; [15],50
same,"Plant response rating, Wheat",[8]; [16],0
same,"Plant response rating, Wheat",[8]; [17],0
same,"Plant response rating, Windgrass",[9]; [18],30
same,Windgrass plant response rating (0 to 100 scale),[9]; [19],50
same,"Plant response rating, Windgrass",[9]; [20],70
same,"Plant response rating, Windgrass",[9]; [21],90
same,"Plant response rating, Flood, Barnyardgrass",[10],60
same,"Plant response rating, Barnyardgrass",[10]; [22],20
same,"Plant response rating, Flood, Ducksalad",[11],50
same,"Plant response rating, Ducksalad",[11]; [22],30
same,"Plant response rating, Flood, Rice",[12],45
same,"Plant response rating, Rice",[12]; [22],0
same,"Plant response rating, Flood, Sedge, Umbrella",[13],50
same,"Plant response rating, Sedge, Umbrella",[13]; [22],0
CCCc1ncc(C(=O)C2=C(O)CCCC2=O)c(=O)n1-c1cccc(C)c1 [Compound 79],"Plant response rating, Barnyardgrass",[1]; [24],80
same,"Plant response rating, Barnyardgrass",[1]; [15],90
same,"Plant response rating, Barnyardgrass",[1]; [16],0
same,"Plant response rating, Barnyardgrass",[1]; [17],70
same,"Plant response rating, Corn",[2]; [24],10
same,"Plant response rating, Corn",[2]; [15],60
same,"Plant response rating, Corn",[2]; [16],0
same,"Plant response rating, Corn",[2]; [17],0
same,"Plant response rating, Foxtail, Giant",[3]; [24],50
same,"Plant response rating, Foxtail, Giant",[3]; [15],80
same,"Plant response rating, Foxtail, Giant",[3]; [16],0
same,"Plant response rating, Foxtail, Giant",[3]; [17],50
same,"Plant response rating, Crabgrass, Large",[4]; [24],80
same,"Plant response rating, Crabgrass, Large",[4]; [15],90
same,"Plant response rating, Crabgrass, Large",[4]; [16],50
same,"Plant response rating, Crabgrass, Large",[4]; [17],100
same,"Plant response rating, Morningglory",[5]; [24],100
same,"Plant response rating, Morningglory",[5]; [15],100
same,"Plant response rating, Morningglory",[5]; [16],0
same,"Plant response rating, Morningglory",[5]; [17],50
same,"Plant response rating, Pigweed",[6]; [24],100
same,"Plant response rating, Pigweed",[6]; [15],100
same,"Plant response rating, Pigweed",[6]; [16],100
same,"Plant response rating, Pigweed",[6]; [17],100
same,"Plant response rating, Velvetleaf",[7]; [24],100
same,"Plant response rating, Velvetleaf",[7]; [15],100
same,"Plant response rating, Velvetleaf",[7]; [16],70
same,"Plant response rating, Velvetleaf",[7]; [17],100
same,"Plant response rating, Wheat",[8]; [24],0
same,"Plant response rating, Wheat",[8]; [15],50
same,"Plant response rating, Wheat",[8]; [16],0
same,"Plant response rating, Wheat",[8]; [17],30
same,"Plant response rating, Windgrass",[9]; [18],50
same,Windgrass plant response rating (0 to 100 scale),[9]; [19],65
same,"Plant response rating, Windgrass",[9]; [20],65
same,"Plant response rating, Windgrass",[9]; [21],90
same,"Plant response rating, Flood, Barnyardgrass",[10],30
same,"Plant response rating, Barnyardgrass",[10]; [22],0
same,"Plant response rating, Barnyardgrass",[10]; [23],20
same,Barnyardgrass plant response rating,[10],0
same,"Plant response rating, Flood, Ducksalad",[11],40
same,"Plant response rating, Ducksalad",[11]; [22],0
same,"Plant response rating, Ducksalad",[11]; [23],15
same,Ducksalad plant response rating,[11],0
same,"Plant response rating, Flood, Rice",[12],20
same,"Plant response rating, Rice",[12]; [22],0
same,"Plant response rating, Rice",[12]; [23],15
same,Rice plant response rating,[12],0
same,"Plant response rating, Flood, Sedge, Umbrella",[13],30
same,"Plant response rating, Sedge, Umbrella",[13]; [22],0
same,"Plant response rating, Sedge, Umbrella",[13]; [23],0
same,"Sedge, Umbrella plant response rating",[13],0
